The values that follow come from patent US12617767B2, “Crystalline forms of somatostatin modulators” (Crinetics Pharmaceuticals, Inc., priority 2019, dated 2026).

Structures are written as SMILES. Like-named read-outs stand apart in the source and are kept apart here. Bounds are passed on as bounds.

Type in all cases: physicochemical
Data set [1] can be described thus: Equilibrium solubility in simulated fluids and water at 37° C. The conditions noted are these: for pH (24 hr): dimesylate; for solubility at 24 h: above calibration range. Here is the method: The solubility Compound A⋅2MSA, Patterns A, B and I, was measured in water, fasted state simulated gastric fluid (FaSSGF) and fasted state simulated intestinal fluid (FaSSIF) at 37° C. by slurrying in the respective media for 24 hours. 1.5 mL of the fluid was stirred at 37° C. About 5 mg of the specified solid was added to FaSSIF and a thin slurry was immediately formed. As a test, approximately 80 and 60 mg of Pattern A was added to 1.5 mL of water and FaSSGF, respectively without formation of a slurry. Therefore, about 10 mg of the desired Pattern was added to water and FaSSGF solutions. The samples were allowed to stir at 37° C. for 24 hrs. The stir bars were removed from the FaSSIF vials and the solids allowed to settle for 0.5 hours at 37° C. The supernatant/solutions were syringe filtered and recovered for analysis by HPLC as well as for pH measurement.

Data set [2] in a line: Kinetic solubility studies in FaSSIF and FeSSIF. The following applies: 37° C.; for solubility thermodynamic at 1 day: thermodynamic from solid, read-out: Concentration. Here is the method:
The solubility of the dimesylate (Pattern B) and mono-HCl salts of Compound A was determined in FaSSIF (pH 6.5) at 37° C. after a slurry time of 5, 20 and 40 minutes. FaSSIF was warmed to 37° C. and added to a vial of ca. 9 mg of the salt to mark t=0. The mixture was kept stirring at 37° C. and a sample drawn with a syringe at t+5, 20 and 40 minutes. The samples were syringe filtered and the filtrate was diluted 2× to ensure no precipitation while waiting for HPLC analysis. The pH of the solution collected at 40 minutes was measured. The slurry was sampled again the following day and the supernatant from syringe filtration was analyzed directly by HPLC without dilution. The same experiment was run with FeSSIF (pH 5.0).

Data set [3] is described as follows: Karl-Fischer titration for water determination. The conditions noted are these: dimesylate. The protocol:
Karl-Fischer titration for water determination was done using a Mettler Toledo C20S Coulometric KF Titrator equipped with a current generator cell with a diaphragm, and a doubleplatinum-pin electrode. Aquastar™ CombiCoulomat fritless reagent was used in both the anode and cathode compartments. Samples of approximately 0.03-0.10 g were dissolved in the anode compartment and titrated until the solution potential dropped below 100 mV. Hydranal 1 wt. % water standard is used for validation prior to sample analysis.

A short description of data set [4]: Stability of XRPD pattern on drying. Here is the method: Short term slurries were carried out at two temperatures in 14 solvents. About 25 mg solid was added to a 2 mL vial followed by 0.70 mL of solvent. If all solids dissolved, more solid was added until a slurry was formed within reason. Slurries were stirred at constant temperature for four days (ambient temperature, 21-23° C.; or high temperature, 50° C.). After stirring for four days, solids were allowed to settle and were then recovered for XRPD analysis. XRPD analysis was performed on the wet cake, and if a new pattern was observed, the sample was dried in a vacuum oven at 50° C. for a minimum of 4 hours, then the dried sample was analyzed by XRPD.
Stability on Drying: A sample of Pattern B was prepared on an XRPD sample holder and analysed by XRPD to create a baseline. The disk was then left in a vacuum oven at 50° C. under static vacuum for 3 days. On the third day, the sample was removed from the oven and the “dry” pattern was recorded immediately.
(§1) Compound A⋅2MSA (Pattern A) was slurried in EtOH overnight at room temperature (ca. 16 hours). […] The bulk was dried in a vacuum oven at 50° C. under dynamic vacuum for 4.5 hours. The dried solids were removed from the oven and a “dry” XRPD analysis was collected.

Data set [5] in a line: Storage at ambient conditions (XRPD). The following applies: 21-22° C., 10-40% RH, a week. Here is the method:
Characterization after storage under ambient conditions: Pattern B was left at ambient conditions (21-22° C., 10-40% RH) for a week then characterized by)(RFD, TGA/DSC, and water content measured by Karl-Fischer titration. […] The water content was confirmed by KF titration which yielded a value of 4.20 wt. %.
Compound A⋅2MSA (Pattern A, 0.2622 g) was added to a 20 mL vial with a stir bar. Fifteen volumes (3.93 mL) of EtOH was added and the slurry was stirred overnight (˜20 hours). The slurry was sampled to confirm the correct pattern was generated, then the solids were collected by filtration. The resultant yellow solid was dried in a vacuum oven at 50° C. under dynamic vacuum for 2 hours, then under static vacuum overnight (˜16 hours) to yield 0.2015 g (77% yield). The in-situ sample drawn was dried for 3 hours then the solid was used for characterization by solution ^1H-NMR spectroscopy and simultaneous TGA/DSC. The bulk was dried overnight and used for stand-alone DSC, and thermal treatment.
as §1
Compound A⋅2MSA (Pattern A, 0.2659 g) was added to a 20 mL vial with a stir bar. Twenty-five volumes (6.65 mL) of ACN was added and the slurry was stirred overnight (˜20 hours). The slurry was sampled to confirm the correct pattern was generated, then the solids were collected by filtration. The resultant yellow solid was dried in a vacuum oven at 50° C. under dynamic vacuum for 2 hours, then under static vacuum overnight (˜16 hours) to yield 0.2255 g (85% yield). The sample drawn was dried for 3 hours then the solid was used for characterization by solution ^1H-NMR spectroscopy and simultaneous TGA/DSC. The bulk was dried overnight and used for stand-alone DSC.

With `CS(=O)(=O)O.CS(=O)(=O)O.N#Cc1cccc(-c2ccc3ncc(-c4cc(F)cc(F)c4)c(N4CCC(N)CC4)c3c2)c1O` [Pattern B, 3-(4-(4-aminopiperidin-1-yl)-3-(3,5-difluorophenyl)quinolin-6-yl)-2-hydroxybenzonitrile dimesylate], the comments entry in data set [1] (FaSSGF (pH 1.70), 24 hrs) is given as “dissolved”; in data set [1] (FaSSIF (pH 6.48), 24 hrs) it was “disproportionated”; in data set [1] (water, 24 hrs) it was “dissolved”. In addition, the entries for the “pH (24 hr)” value in data set [1] (FaSSGF (pH 1.70)), in data set [1] (FaSSIF (pH 6.48)) and in data set [1] (water) were 1.80, 6.02 and 3.08, respectively. Also, the solubility at 24 h in data set [1] (FaSSGF, 37 °C, pH 1.7, fassgf or other biorelevant, thermodynamic from solid, FaSSGF (pH 1.70), 24 hrs, mg of Compound A (free base), read-out: Concentration) was over 6570 µg/mL; in data set [1] (water, 37 °C, water, thermodynamic from solid, water, 24 hrs, mg of Compound A (free base), read-out: Concentration), over 6250 µg/mL. For the same compound, in data set [1] (FaSSIF, 37 °C, pH 6.48, fassif, thermodynamic from solid, FaSSIF (pH 6.48), 24 hrs, mg of Compound A (free base), read-out: Concentration), the solubility thermodynamic at 24 h was 11 µg/mL. The “pH of the solution collected at 40 minutes” value in data set [2] (FaSSIF (pH 6.5)) came to 6.22; in data set [2] (FeSSIF (pH 5.0)), 4.94. Besides, the Concentration in data set [2] (FaSSIF (pH 6.5), 5 min) was found to be 0.013 mg/mL; in data set [2] (FaSSIF (pH 6.5), 20 min), 0.015 mg/mL; in data set [2] (FaSSIF (pH 6.5), 40 min), 0.013 mg/mL; in data set [2] (FeSSIF (pH 5.0), 5 min), 0.559 mg/mL; in data set [2] (FeSSIF (pH 5.0), 20 min), 0.565 mg/mL; in data set [2] (FeSSIF (pH 5.0), 40 min), 0.559 mg/mL. In addition, the solubility thermodynamic at 1 day in data set [2] (FaSSIF (pH 6.5)) came out at 8 µg/mL; in data set [2] (FeSSIF (pH 5.0)), 502 µg/mL. The “Water Content” value in data set [3] was 4.2% w/w. For the same compound, in data set [4] (solids from short term slurries, vacuum oven at 50° C., minimum of 4 hours, dimesylate), the “XRPD pattern upon drying” value is listed as “stable upon drying”. In addition, in data set [4] (vacuum oven at 50° C. under static vacuum for 3 days), the “XRPD pattern after drying” value is “matched Pattern B”. Moreover, the “XRPD pattern after storage at ambient conditions” value in data set [5] is reported as “identical to Pattern B”.
